Assay results reported in patent US11976137B2, “Compounds for use as apelin receptor antagonists” (Cambridge Enterprise Limited, priority 2018, dated 2024).
Values joined by “and” are separate entries in the source; they are usually repeats but may differ in a detail not shown here. Identical values can stand only once. Like-named read-outs stand apart in the source and are kept apart here. Non-standard residues stand in square brackets, D forms with d. Residues, ends and D or L forms follow the SMILES beside them. *: point of attachment. Phe(3,4,5-F3) = N[C@@H](Cc1cc(F)c(F)c(F)c1)C(=O)O; Myristoyl = CCCCCCCCCCCCCC(=O)*; pGlu = O=C1CC[C@@H](C(=O)O)N1; Nle = CCCC[C@H](N)C(=O)O; Abu = CC[C@H](N)C(=O)O; Aib = CC(C)(N)C(=O)O

Experiments:
Set-up in all cases: host or cells: CHO-K1
[1] = molecular target: T1, human apelin receptor (Homo sapiens, UniProt P35414); assay: Cerep radioligand binding assay on CHO-K1 cells expressing the human apelin receptor
T1 sequence (P35414 1-380): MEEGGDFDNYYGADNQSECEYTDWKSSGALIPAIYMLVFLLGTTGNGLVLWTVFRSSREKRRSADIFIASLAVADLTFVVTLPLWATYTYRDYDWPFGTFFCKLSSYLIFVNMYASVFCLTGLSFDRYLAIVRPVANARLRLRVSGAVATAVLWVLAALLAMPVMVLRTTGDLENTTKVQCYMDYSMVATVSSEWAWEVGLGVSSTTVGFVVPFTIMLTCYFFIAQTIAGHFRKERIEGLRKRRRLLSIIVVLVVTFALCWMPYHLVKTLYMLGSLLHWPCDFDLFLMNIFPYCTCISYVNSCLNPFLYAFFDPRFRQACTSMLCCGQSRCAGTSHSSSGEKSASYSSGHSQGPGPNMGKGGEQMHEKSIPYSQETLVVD
Protocol: Binding assays were performed by Cerep (Celle L'Evescault, France) on Chinese Hamster Ovary (CHO-K1) cells expressing the human apelin receptor. […] The results were expressed as a percent of control specific binding ((measured specific binding/control specific binding)×100) and as a percent inhibition of control specific binding (100−((measured specific binding/control specific binding)×100)) obtained in the presence of the test compounds. […] The inhibition constants (Ki) were calculated using the Cheng Prusoff equation (Ki=IC50/(1+(L/KD)), where L=concentration of radioligand in the assay, and KD=equilibrium dissociation constant of the radioligand for the receptor).

[2] = molecular target: T1, human apelin receptor; assay: DRx cAMP assay (cAMP Hunter eXpress AGTRL1 CHO-K1), forskolin-induced cAMP accumulation; assay type: cell-based; conditions: DRx cAMP pA2, antagonism of [Pyr1]apelin-13 inhibition of forskolin-stimulated cAMP
Protocol: Antagonist activity at the apelin receptor was measured in two assays.
(§1) cAMP (cAMP Hunter™ eXpress AGTRL1 CHO-K1 GPCR Assay, DiscoverX Corporation, Ltd. Birmingham, UK) and β-arrestin (PathHunter® eXpress AGTRL1 CHO-K1 β-Arrestin GPCR Assay, DiscoverX Corporation, Ltd. Birmingham, UK) assays were performed according to the manufacturer's instructions. The cAMP assay measures the canonical signalling pathway through the G-protein. The β-arrestin assay measures the alternative signalling pathway and receptor internalisation.
Cells were then incubated with a mixture of Lysis Buffer, cAMP Buffer D and Detection Reagents for 1 hour at room temperature, followed by a 3 hour incubation with cAMP Reagent A at room temperature. Chemiluminescence was read using the LumiLITE™ Microplate Reader (DiscoverX). Concentration-response data for agonists, measured in relative light units (RLU), were analysed using a 4 parameter logistic equation in GraphPad Prism 6 (La Jolla, CA, USA) to determine values of potency expressed as the pD2 value (negative logo of the EC50 (where EC50 is the concentration producing half maximal response)), and maximum response (EMAX). Mean data from replicate experiments were normalised as percentage inhibition of forskolin-stimulated cAMP production.

[3] = molecular target: T1, human apelin receptor; assay: DRx β-arrestin assay (PathHunter eXpress AGTRL1 CHO-K1); assay type: cell-based; conditions: for Kb: DRx β-Arrestin pA2; for DRx β-Arrestin pA2: cho-k1 cells, 90 min
Protocol: as §1
For recruitment of β-arrestin, CHO-K1 cells artificially expressing the human apelin receptor were seeded in Cell Plating medium into 96-well plates and incubated for 48 hours at 37° C. in 5% CO2. Concentration response curves were constructed to test peptides (1 pmol/L-30 μmol/L) which were diluted in Cell Plating medium and added to the cells for 90 minutes at 37° C. If no response was obtained then test peptides were investigated as antagonists. […] Detection reagents were then added for a 2-hour incubation at room temperature. […] If no agonist response was obtained, test compounds were investigated for antagonist activity by repeating [Pyr]apelin-13 concentration response curves in the absence and presence of a single concentration (1-30 μmol/L of test peptide). Data were analysed as described for the cAMP assay using the Gaddum/Schild EC50 function in GraphPad Prism 6 to determine values of pA2.

[4] = [Glp65,Nle75,Tyr77][125I]apelin-13, read-out: Ki (binding affinity at the apelin receptor, Cerep)

In the case of `CCCCCCCCCCCCCC(=O)N[C@@H](C)C(=O)N[C@@H](CCCNC(=N)N)C(=O)N1CCC[C@H]1C(=O)N[C@@H](CCCNC(=N)N)C(=O)N[C@@H](CCCC)C(=O)N[C@@H](CC)C(=O)N[C@@H](CCCCN)C(=O)N[C@@H](Cc1c[nH]cn1)C(=O)N[C@@H](CC)C(=O)N[C@@H](CCCNC(=N)N)C(=O)NC(C)(C)C(=O)N[C@@H](CCCNC(=N)N)C(=O)N[C@@H](CCCC)C(=O)N[C@@H](Cc1cc(F)c(F)c(F)c1)C(=O)O` [MM315, Myristoyl-ARPR-Nle-Abu-KH-Abu-R-Aib-R-Nle-(3,4,5-trifluorophenylalanine)] (Myristoyl-ARPR[Nle][Abu]KH[Abu]R[Aib]R[Nle][Phe(3,4,5-F3)]-OH), the Ki [1, 4] is reported as 2.7 nM and 3 nM and the Kb [2] is reported as 7.76 nM and 3.02 nM.
With `CCCC[C@H](NC(=O)[C@H](CCCNC(=N)N)NC(=O)C(C)(C)NC(=O)[C@H](CCCNC(=N)N)NC(=O)[C@H](CC)NC(=O)[C@H](Cc1c[nH]cn1)NC(=O)[C@H](CCCCN)NC(=O)[C@H](CS)NC(=O)[C@H](CCCC)NC(=O)[C@H](CCCNC(=N)N)NC(=O)[C@@H]1CCCN1C(=O)[C@H](CCCNC(=N)N)NC(=O)[C@H](C)NC(C)=O)C(=O)N[C@@H](Cc1cc(F)c(F)c(F)c1)C(=O)O` [MM313, Ac-ARPR-Nle-CKH-Abu-R-Aib-R-Nle-(3,4,5-trifluorophenylalanine)] (Ac-ARPR[Nle]CKH[Abu]R[Aib]R[Nle][Phe(3,4,5-F3)]-OH) the Ki [1, 4] was 53 nM and 47 nM and the Kb [2] was 219 nM and 120 nM.
With `CCCC[C@H](NC(=O)[C@H](CCCNC(=N)N)NC(=O)C(C)(C)NC(=O)[C@H](CCCNC(=N)N)NC(=O)[C@H](CS)NC(=O)[C@H](CCCCN)NC(=O)[C@H](Cc1c[nH]cn1)NC(=O)[C@H](CS)NC(=O)[C@H](CCCC)NC(=O)[C@H](CCCNC(=N)N)NC(=O)[C@@H]1CCCN1C(=O)[C@H](CCCNC(=N)N)NC(=O)[C@@H](N)CS)C(=O)N[C@@H](Cc1cc(F)c(F)c(F)c1)C(=O)O` [MM302, CRPR-Nle-CHKCR-Aib-R-Nle-(3,4,5-trifluorophenylalanine)] (H-CRPR[Nle]CHKCR[Aib]R[Nle][Phe(3,4,5-F3)]-OH; N-terminus and C-terminus assumed) the Ki [1, 4] was 17 nM, the Kb [3] was 2.69 nM and 2.29 nM and the “bias between cAMP and β-arrestin pathway inhibition” value ([3]; comparison of β-arrestin and cAMP pA2 of Table 3) was “almost a log unit of bias towards inhibition of the β-arrestin pathway”. For the same compound, the Kb [2] was 20 nM and 55 nM.
For `CC(C)C[C@H](NC(=O)[C@H](CCCNC(=N)N)NC(=O)[C@@H]1CCCN1C(=O)[C@H](CCCNC(=N)N)NC(=O)[C@H](CS)NC(=O)[C@H](Cc1c[nH]cn1)NC(=O)[C@H](CCCCN)NC(=O)[C@H](CS)NC(=O)[C@H](CC(C)C)NC(=O)[C@H](CCCNC(=N)N)NC(=O)[C@@H]1CCCN1C(=O)[C@H](CCCNC(=N)N)NC(=O)[C@@H](N)CS)C(=O)N[C@@H](CS)C(=O)O` [MM108] (H-CRPRLCKHCRPRLC-OH), the Ki ([1]; Ki (binding affinity at the apelin receptor, Cerep), [Glp65,Nle75,Tyr77][125I]apelin-13) was 140 nM, the Kb [3] was 38.9 nM and the “DRx β-Arrestin pA2” value [3] was “pA2 = 7.41”. For the same compound, the Kb [2] was 107 nM and 191 nM.
For `CCCC[C@H](NC(=O)[C@H](CCCNC(=N)N)NC(=O)C(C)(C)NC(=O)[C@H](CCCNC(=N)N)NC(=O)[C@H](CS)NC(=O)[C@H](Cc1c[nH]cn1)NC(=O)[C@H](CCCCN)NC(=O)[C@H](CS)NC(=O)[C@H](CCCC)NC(=O)[C@H](CCCNC(=N)N)NC(=O)[C@@H]1CCCN1C(=O)[C@H](CCCNC(=N)N)NC(=O)[C@@H]1CCC(=O)N1)C(=O)N[C@@H](Cc1cc(F)c(F)c(F)c1)C(=O)O` [MM297, pyr-RPR-Nle-CKHCR-Aib-R-Nle-(3,4,5-trifluorophenylalanine)] ([pGlu]RPR[Nle]CKHCR[Aib]R[Nle][Phe(3,4,5-F3)]-OH), the Ki [1, 4] was 55 nM, the Kb [3] was 41.7 nM and the “DRx β-Arrestin pA2” value [3] was “pA2 = 7.38”. The Kb [2] was 832 nM and 724 nM.
`CCCCCCCCCCCCCC(=O)N[C@@H](C)C(=O)N[C@@H](CCCNC(=N)N)C(=O)N1CCC[C@H]1C(=O)N[C@@H](CCCNC(=N)N)C(=O)N[C@@H](CCCC)C(=O)N[C@@H](CC)C(=O)N[C@@H](Cc1c[nH]cn1)C(=O)N[C@@H](CCCCN)C(=O)N[C@@H](CC)C(=O)N[C@@H](CCCNC(=N)N)C(=O)NC(C)(C)C(=O)N[C@@H](CCCNC(=N)N)C(=O)N[C@@H](CCCC)C(=O)N[C@@H](Cc1cc(F)c(F)c(F)c1)C(=O)O` [MM316, Myristoyl-ARPR-Nle-Abu-HK-Abu-R-Aib-R-Nle-(3,4,5-trifluorophenylalanine)] (Myristoyl-ARPR[Nle][Abu]HK[Abu]R[Aib]R[Nle][Phe(3,4,5-F3)]-OH) was tested, and the Ki [1, 4] was 2.8 nM and 3 nM and the Kb [2] was 13.2 nM and 38.9 nM.
For `CCCC[C@H](NC(=O)[C@H](CCCNC(=N)N)NC(=O)C(C)(C)NC(=O)[C@H](CCCNC(=N)N)NC(=O)[C@H](CC)NC(=O)[C@H](Cc1c[nH]cn1)NC(=O)[C@H](CCCCN)NC(=O)[C@H](CC)NC(=O)[C@H](CCCC)NC(=O)[C@H](CCCNC(=N)N)NC(=O)[C@@H]1CCCN1C(=O)[C@H](CCCNC(=N)N)NC(=O)[C@H](C)N)C(=O)N[C@@H](Cc1cc(F)c(F)c(F)c1)C(=O)O` [MM314, ARPR-Nle-Abu-KH-Abu-R-Aib-R-Nle-(3,4,5-trifluorophenylalanine)] (H-ARPR[Nle][Abu]KH[Abu]R[Aib]R[Nle][Phe(3,4,5-F3)]-OH), the Ki [1, 4] was 10 nM and 8.9 nM and the Kb [2] was 372 nM and 195 nM.
In the case of `CCCC[C@H](NC(=O)[C@H](CCCNC(=N)N)NC(=O)C(C)(C)NC(=O)[C@H](CCCNC(=N)N)NC(=O)[C@H](CS)NC(=O)[C@H](Cc1c[nH]cn1)NC(=O)[C@H](CCCCN)NC(=O)[C@H](CC)NC(=O)[C@H](CCCC)NC(=O)[C@H](CCCNC(=N)N)NC(=O)[C@@H]1CCCN1C(=O)[C@H](CCCNC(=N)N)NC(=O)[C@@H](N)CS)C(=O)N[C@@H](Cc1cc(F)c(F)c(F)c1)C(=O)O` [MM298, CRPR-Nle-Abu-KHCR-Aib-R-Nle-(3,4,5-trifluorophenylalanine)] (H-CRPR[Nle][Abu]KHCR[Aib]R[Nle][Phe(3,4,5-F3)]-OH), the Ki [1, 4] is reported as 16 nM, the Kb [3] is reported as 17.4 nM and the “DRx β-Arrestin pA2” value [3] is reported as “pA2 = 7.76”. The Kb [2] was 25.7 nM and 75.9 nM.
`CC(C)C[C@H](NC(=O)[C@H](CCCNC(=N)N)NC(=O)[C@@H]1CCCN1C(=O)[C@H](CCCNC(=N)N)NC(=O)[C@H](CS)NC(=O)[C@H](CCCCN)NC(=O)[C@H](Cc1c[nH]cn1)NC(=O)[C@H](CS)NC(=O)[C@H](CC(C)C)NC(=O)[C@H](CCCNC(=N)N)NC(=O)[C@@H]1CCCN1C(=O)[C@H](CCCNC(=N)N)NC(=O)[C@@H](N)CS)C(=O)N[C@@H](CS)C(=O)O` [MM107] (H-CRPRLCHKCRPRLC-OH; N-terminus and C-terminus assumed) was tested, and the Kb [3] was 57.5 nM, the “DRx β-Arrestin pA2” value [3] was “pA2 = 7.24” and the Kb [2] was 4680 nM and 575 nM.
With `CCCC[C@H](NC(=O)[C@H](CCCNC(=N)N)NC(=O)C(C)(C)NC(=O)[C@H](CCCNC(=N)N)NC(=O)[C@H](CC)NC(=O)[C@H](Cc1c[nH]cn1)NC(=O)[C@H](CCCCN)NC(=O)[C@H](CS)NC(=O)[C@H](CCCC)NC(=O)[C@H](CCCNC(=N)N)NC(=O)[C@@H]1CCCN1C(=O)[C@H](CCCNC(=N)N)NC(=O)[C@H](C)N)C(=O)N[C@@H](Cc1cc(F)c(F)c(F)c1)C(=O)O` [MM312, ARPR-Nle-CKH-Abu-R-Aib-R-Nle-(3,4,5-trifluorophenylalanine)] (H-ARPR[Nle]CKH[Abu]R[Aib]R[Nle][Phe(3,4,5-F3)]-OH) the Ki [1, 4] was 190 nM and 160 nM and the Kb [2] was 251 nM and 145 nM.
